In patent publication EP0816362A1, “THIAZOLE DERIVATIVES” (TAISHO PHARMACEUTICAL CO. LTD, priority 1995, dated 1996):

The compounds below were run against T1, human D4.2 receptor (Homo sapiens, UniProt P21917, DEL265-296) (assay: Dopamine D4 receptor binding experiment ([3H]-spiperone)). Conditions: CHO cell membranes expressing human D4.2 receptor, [3H]-spiperone (0.5 nM), 27°C, 2 hours.
T1 sequence (P21917 with tags, fused parts or gaps DEL265-296): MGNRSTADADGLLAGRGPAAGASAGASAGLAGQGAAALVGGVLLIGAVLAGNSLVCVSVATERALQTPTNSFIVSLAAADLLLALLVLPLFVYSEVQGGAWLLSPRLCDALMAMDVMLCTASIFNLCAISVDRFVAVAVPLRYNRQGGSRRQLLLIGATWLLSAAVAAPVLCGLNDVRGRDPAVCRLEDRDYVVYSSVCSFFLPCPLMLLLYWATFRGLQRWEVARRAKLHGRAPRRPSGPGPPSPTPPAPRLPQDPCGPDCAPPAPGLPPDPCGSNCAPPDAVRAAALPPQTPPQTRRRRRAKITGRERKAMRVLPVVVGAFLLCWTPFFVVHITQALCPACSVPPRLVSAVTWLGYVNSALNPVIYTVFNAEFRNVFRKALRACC
Description: As a receptor preparation, Chinese hamster ovary (CHO) cell membranes where human D4.2 receptor was expressed were used.
As [^3H]-labeled ligand, [^3H]-spiperone was used.
Human D4.2 receptor binding test: CHO cell membranes where human D4.2 receptor was expressed, [^3H]-spiperone (0.5 nM) and a test drug were reacted at 27°C for 2 hours in 50 mM Tris-HCl buffer, pH 7.4 containing 5 mM EDTA, 1.5 mM calcium chloride, 5 mM potassium chloride and 120 mM sodium chloride.
After the reaction, the sample was filtered under suction through a glass filter (GF/B), and the radioactivity of the filter paper was determined in a liquid scintillation spectrometer.
The binding of [^3H]-spiperone in the presence of 10 µM haloperidol was assumed to be non-specific binding, and the difference between the total binding and the non-specific binding was assumed to be specific binding.
With `C=C(c1ccc(F)cc1)C1CCN(CCc2sc(N)nc2-c2ccc(F)cc2)CC1` [Compound K-18] the IC50 was 20.1 nM.
`Cc1nc(-c2ccc(F)cc2)c(CCN2CCC(C(=O)c3ccccc3)CC2)s1` [Compound K-24] showed an IC50 of 5.99 nM.
For `Cc1nc(-c2ccc(F)cc2)c(CCN2CCC(C(=O)c3ccc(Br)cc3)CC2)s1` [Compound K-21], the IC50 was 11.5 nM.
Compound `Nc1nc(-c2ccc(F)cc2)c(C2CCN(CCCN3C(=O)CCc4ccccc43)C2)s1` (stereo not drawn) [Compound H-02] has an IC50 of 81.1 nM.
`Nc1nc(-c2ccc(F)cc2)c(C2CCN(CCCC(=O)c3ccc(F)cc3)C2)s1` [Compound D-02, 2-amino-4-(4-fluorophenyl)-5-[1-[4-(4-fluorophenyl)-4-oxobutyl]pyrrolidin-3-yl]thiazole] showed an IC50 of 6.58 nM.
For `CNc1nc(-c2ccc(F)cc2)c(C2CCN(CCCC(=O)c3ccc(F)cc3)C2)s1` (racemic) [Compound D-13], the IC50 was 12.6 nM.
`Nc1nc(-c2ccc(F)cc2)c(C2CCN(CCCc3noc4cc(F)ccc34)C2)s1` (stereo not drawn) [Compound E-02, 2-amino-4-(4-fluorophenyl)-5-[1-[3-(6-fluoro-1,2-benzisoxazol-3-yl)propyl]pyrrolidin-3-yl]thiazole] was tested, and the IC50 was 10.5 nM.
`Cc1nc(-c2ccc(F)cc2)c(C2CCN(CCCC(=O)c3ccc(F)cc3)C2)s1` (racemic) [Compound D-15] gave an IC50 of 4.13 nM.
`Cc1nc(-c2ccccc2)c(CCN2CCC(C(=O)c3ccc(F)cc3)CC2)s1` [Compound K-30] gave an IC50 of 2.15 nM.
Compound `Nc1nc(-c2ccc(F)cc2)c(CCN2CCC(C(=O)c3ccccc3)CC2)s1` [Compound K-09] has an IC50 of 42.3 nM.
`Cc1ccc(C(=O)C2CCN(CCc3sc(C)nc3-c3ccc(F)cc3)CC2)cc1` [Compound K-25] gave an IC50 of 5.46 nM.
With `Cc1ccc(-c2nc(C)sc2CCN2CCC(C(=O)c3ccc(F)cc3)CC2)cc1` [Compound K-29] the IC50 was 2.36 nM.
Work on `Cc1ccc(C(=O)C2CCN(CCc3sc(N)nc3-c3ccc(F)cc3)CC2)cc1` [Compound K-16] yielded an IC50 of 9.55 nM.

Same assay, conditions: inhibition of [3H]-spiperone binding, human D4.2 receptor
Work on `COc1ccc(-c2nc(C)sc2CCN2CCC(C(=O)c3ccc(F)cc3)CC2)cc1Br` [Compound K-31] yielded an IC50 of 0.705 nM.
`Nc1nc(-c2ccc(F)cc2)c(CCN2CCC(=Cc3cccc(C(F)(F)F)c3)CC2)s1` [Compound L-13] showed an IC50 of 24.2 nM.
In the case of `Nc1nc(-c2ccc(F)cc2)c(CCCN2CCC(=Cc3ccc(F)cc3)CC2)s1` [Compound L-02], the IC50 is reported as 38.5 nM.
With `Cc1nc(-c2ccc(F)cc2)c(CCN2CCC(=Cc3ccc(F)cc3)CC2)s1` [Compound L-17] the IC50 was 12.6 nM.
In the case of `Cc1nc(-c2ccccc2)c(CCN2CCC(=Cc3ccc(F)cc3)CC2)s1` [Compound L-23], the IC50 is reported as 3.13 nM.
Work on `Cc1ccc(-c2nc(N)sc2CCN2CCC(=Cc3ccc(F)cc3)CC2)cc1` [Compound L-06] yielded an IC50 of 4.13 nM.
Work on `Nc1nc(-c2ccc(F)cc2)c(CCN2CCC(=Cc3ccccc3)CC2)s1` [Compound L-14] yielded an IC50 of 3.76 nM.
Compound `Cc1nc(-c2ccc(F)cc2)c(CCN2CCC(=Cc3ccc(Cl)cc3)CC2)s1` [Compound L-24] has an IC50 of 11.5 nM.
`Nc1nc(-c2ccc(Cl)cc2)c(CCN2CCC(=Cc3ccc(F)cc3)CC2)s1` [Compound L-03] showed an IC50 of 22.1 nM.
For `Nc1nc(-c2ccc(F)cc2)c(CCN2CCC(CC(=O)c3ccc(F)cc3)C2)s1` (stereo not drawn) [Compound K-37], the IC50 was 10.5 nM.
For `COc1ccc(-c2nc(C)sc2CCN2CCC(=Cc3ccc(F)cc3)CC2)cc1Br` [Compound L-22], the IC50 was 13.9 nM.
With `Cc1nc(-c2ccc(Cl)cc2)c(CCN2CCC(=Cc3ccc(F)cc3)CC2)s1` [Compound L-18] the IC50 was 9.55 nM.
`Fc1ccc(-c2ncsc2CCN2CCC(=Cc3ccccc3)CC2)cc1` [Compound L-33] gave an IC50 of 3.43 nM.
With `Fc1ccc(C=C2CCN(CCc3scnc3-c3ccc(F)cc3)CC2)cc1` [Compound L-32] the IC50 was 6.58 nM.
`COc1ccc(C=C2CCN(CCc3sc(N)nc3-c3ccc(F)cc3)CC2)cc1` [Compound L-10] showed an IC50 of 29.2 nM.
For `Cc1nc(-c2ccc(F)cc2)c(CCN2CCC(=Cc3cccc(C(F)(F)F)c3)CC2)s1` [Compound L-29], the IC50 was 10.5 nM.
`O=C(c1ccccc1)C1CCN(CCc2scnc2-c2ccc(F)cc2)CC1` [Compound K-34] showed an IC50 of 20.1 nM.
